Assay results: paper PMC9229798, “Antioxidant Activity and Cytotoxicity of Aromatic Oligosulfides” (Molecules, 2022)
Entries after “also recorded” stand apart in the source; their conditions may differ.

tested on: not listed separately; assay: Ferrous ions (Fe2+) chelating activity (FIC); conditions: Fe2+ chelating activity
Source text: Despite the important biological role of iron, it can cause various pathological diseases, such as neurodegenerative, liver and heart diseases, cancer, and diabetes. In addition, it is able to catalyze the Fenton reaction and lead to the formation of a highly reactive hydroxyl radical. In this regard, the process of transition metal chelation was studied as one of the possible mechanisms of the action of antioxidants. This assay was based on the reaction of binding Fe^2+ ions by the studied compounds under moderately acidic conditions (pH = 6). Unreacted Fe^2+ ions reacted with ferrozine to form a stable dark violet colored complex. […] The chelation of ferrous ions by compounds was estimated by method of Dinis et al.. Briefly, 10 μL of 2 mM FeCl2 was added to 20 μL of the investigated compound (5 mM) and 150 μL of EtOH. The reaction was initiated by the addition of 0.04 mL of 5 mM ferrozine solution. The mixture was left to stand at 35 °C for 10 min. The absorbance of the solution was thereafter measured at 562 nm. The percentage inhibition of ferrozine–Fe^2+ complex formation was calculated as [(A0 − As)/[…]] × 100, where A0 is the absorbance of the control, and As is the absorbance of the compound/standard. Na2EDTA was used as the positive control.

Row | Compound | IC50 [µM]
1 | c1ccc(SSSc2ccccc2)cc1 [Compound 1, diphenyl trisulfide] | 7760 ± 20
2 | Oc1ccc(SSc2ccc(O)cc2)cc1 [Compound 4, 4,4′-dihydroxydiphenyl disulfide] | 5620 ± 40
3 | c1ccc(SSc2ccccc2)cc1 [Compound 5, diphenyl disulfide] | 3740 ± 20

The next lines start with the values.

Row | IC50 [µM] | Compound
4 | > 10000 | COc1ccccc1SSc1ccccc1OC [Compound 2, bis(2-methoxyphenyl) disulfide]
5 | > 10000 | COc1ccc(SSc2ccc(OC)c(OC)c2)cc1OC [Compound 3, bis(3,4-dimethoxyphenyl) disulfide]
6 | 6100 ± 10 | CC(C)(C)c1cc(SSc2cc(C(C)(C)C)c(O)c(C(C)(C)C)c2)cc(C(C)(C)C)c1O [Compound 6, bis(3,5-di-tert-butyl-4-hydroxyphenyl) disulfide]

same assay, conditions: compound 5 mM, ferrozine–Fe2+ complex formation

Row | Compound | FIC, % of Inhibition [%]
7 | c1ccc(SSSc2ccccc2)cc1 [Compound 1, diphenyl trisulfide] | 25.8 ± 1.1
8 | COc1ccccc1SSc1ccccc1OC [Compound 2, bis(2-methoxyphenyl) disulfide] | 7.1 ± 0.2
9 | COc1ccc(SSc2ccc(OC)c(OC)c2)cc1OC [Compound 3, bis(3,4-dimethoxyphenyl) disulfide] | 7.5 ± 0.3
10 | Oc1ccc(SSc2ccc(O)cc2)cc1 [Compound 4, 4,4′-dihydroxydiphenyl disulfide] | 47.2 ± 1.5

tested on: WI-38; assay: MTT assay; assay type: cell-based; conditions: Homo sapiens, 72 h, non-tumourigenic cells
Experimental: (§1) The antiproliferative activity of aromatic oligosulfides 1–6 was determined against human cell lines, including colon carcinoma HCT-116, breast adenocarcinoma MCF-7, lung adenocarcinoma A-549, colorectal carcinoma SW-480, and non-tumourigenic WI-38, using the MTT assay (Table 4). […] However, some selectivity for cancer cells was evident and the IC50 values for non-tumourigenic cells were slightly higher for compounds 1 and 2.
(§2) Cell survival was determined by the MTT [3-(4,5-[…])-2,5-diphenyl tetrazolium bromide] assay by Niks method with small modifications. HCT-116 (colon carcinoma), MCF-7 (breast adenocarcinoma), A-549 (lung adenocarcinoma) and SW-480 (colorectal carcinoma) human cancer cell lines and WI-38 (cell line composed of fibroblasts) were cultured in DMEM (PanEco, Moscow, Russia) with Glutamin (PanEco, Moscow, Russia) and antibiotics (PanEco, Moscow, Russia) in CO2 (5%) at 37 °C. The compounds were dissolved (20 mM) in DMSO and then added to the cell culture medium at the required concentration with a maximum DMSO content of 0.5 v/v%. At these concentrations, DMSO had no effect on cell viability, as was shown in the control experiments. Cells were cultured in 96-well plates (7000 cells/well) and treated with various concentrations (from […]) of the test compounds as well as doxorubicin at 37 °C for 72 h. Cell viability was determined using the MTT assay, which quantified dehydrogenase activity. Then, the cells were incubated at 37 °C for 50 min with a solution of MTT ([…], 5 mg × mL^−1) (Sigma-Aldrich, St. Louis, MO, USA). The supernatant was discarded, and cells were dissolved in DMSO ([…]). The optical density of the solution was measured at 570 nm with use of a multiwall-plate reader (Anthos Zenyth 2000rt, Biochrom, Cambridge, UK), and the percentage of surviving cells was calculated from the absorbance of untreated cells. Each experiment was repeated at least three times, and each concentration was tested in at least three replicates. Data were presented as a graph of the percentage of surviving cells versus the concentration of the test substances. The meanings of 50% inhibition concentration (IC50) with standard deviation were calculated using GraphPad Prism Version 5.03 for Windows (GraphPad Software, San Diego, CA, USA).

Row | Compound | IC50 [µM]
11 | c1ccc(SSSc2ccccc2)cc1 [Compound 1, diphenyl trisulfide] | 52.7 ± 8.5
12 | COc1ccccc1SSc1ccccc1OC [Compound 2, bis(2-methoxyphenyl) disulfide] | 31.9 ± 5.2
13 | COc1ccc(SSc2ccc(OC)c(OC)c2)cc1OC [Compound 3, bis(3,4-dimethoxyphenyl) disulfide] | 32.8 ± 5.4
14 | Oc1ccc(SSc2ccc(O)cc2)cc1 [Compound 4, 4,4′-dihydroxydiphenyl disulfide] | 28.7 ± 5.3
15 | c1ccc(SSc2ccccc2)cc1 [Compound 5, diphenyl disulfide] | 33.7 ± 9.1
16 | CC(C)(C)c1cc(SSc2cc(C(C)(C)C)c(O)c(C(C)(C)C)c2)cc(C(C)(C)C)c1O [Compound 6, bis(3,5-di-tert-butyl-4-hydroxyphenyl) disulfide] | 115 ± 75

tested on: not listed separately; assay: NBT assay, superoxide radical anion formation by xanthine oxidase; assay type: biochemical; conditions: sample solution 5 mM in DMSO
Source text: The superoxide radical anion was generated in the xanthine/xanthine oxidase enzymatic system and reduced nitroblue tetrazolium (NBT) to an intensely blue colored diformazan (λ = 560 nm). There was a decrease in the concentration of diformazan in the presence of a potential antioxidant that absorbs O2^–•. […] Despite the fact that compounds 2 and 6 were structurally similar to the corresponding disulfides 3 and 4, they were not active in this assay.
EDTA, xanthine, bovine serum albumin, nitroblue tetrazolium, and xanthine oxidase (25 MU) were purchased from Sigma Aldrich, Burlington, MA, USA. The superoxide anions were generated enzymatically by the xanthine oxidase system. The reaction mixture consisted of 2.70 mL of 40 mM sodium carbonate buffer containing 0.1 mM EDTA (pH 10.0), 0.06 mL of 10 mM xanthine, 0.03 mL of 0.5% bovine serum albumin, 0.03 mL of 2.5 mM nitroblue tetrazolium, and 0.06 mL of the sample solution in DMSO at the concentration of 5 mM. An amount of 0.12 mL of xanthine oxidase (0.04 units) was added to the mixture at 25 °C, and the absorbance at 560 nm (by formation of blue formazan) was measured by microplate spectrophotometer for 60 s. A control experiment was carried out by replacing the sample solution with the same amount of DMSO.
Inhibition I (%) = [(1 − Ai/A0) × 100%], where Ai is the absorbance in the presence of the testing compound, A0 is the absorbance of the blank solution [78]. All experiments were performed three times.

Row | Compound | NBT, % Inhibition
17 | c1ccc(SSSc2ccccc2)cc1 [Compound 1, diphenyl trisulfide] | non active
18 | Oc1ccc(SSc2ccc(O)cc2)cc1 [Compound 4, 4,4′-dihydroxydiphenyl disulfide] | 57.8 ± 0.07%
19 | c1ccc(SSc2ccccc2)cc1 [Compound 5, diphenyl disulfide] | non active

Other lines, results leading:

Row | NBT, % Inhibition | Compound
20 | not active; also recorded: non active | COc1ccccc1SSc1ccccc1OC [Compound 2, bis(2-methoxyphenyl) disulfide]
21 | 24.3 ± 0.05% | COc1ccc(SSc2ccc(OC)c(OC)c2)cc1OC [Compound 3, bis(3,4-dimethoxyphenyl) disulfide]
22 | not active; also recorded: non active | CC(C)(C)c1cc(SSc2cc(C(C)(C)C)c(O)c(C(C)(C)C)c2)cc(C(C)(C)C)c1O [Compound 6, bis(3,5-di-tert-butyl-4-hydroxyphenyl) disulfide]

tested on: SW-480; assay: MTT assay; assay type: cell-based, human; conditions: Homo sapiens, SW480, 72 h
Experimental: as §1, §2

Row | Compound | IC50 [µM]
23 | c1ccc(SSSc2ccccc2)cc1 [Compound 1, diphenyl trisulfide] | 23.8 ± 4.5
24 | Oc1ccc(SSc2ccc(O)cc2)cc1 [Compound 4, 4,4′-dihydroxydiphenyl disulfide] | 39.4 ± 7.9
25 | c1ccc(SSc2ccccc2)cc1 [Compound 5, diphenyl disulfide] | 30.6 ± 5.6

The remaining lines, values ahead:

Row | IC50 [µM] | Compound
26 | 22.4 ± 3.8 | COc1ccccc1SSc1ccccc1OC [Compound 2, bis(2-methoxyphenyl) disulfide]
27 | 21.7 ± 2.4 | COc1ccc(SSc2ccc(OC)c(OC)c2)cc1OC [Compound 3, bis(3,4-dimethoxyphenyl) disulfide]
28 | > 50 | CC(C)(C)c1cc(SSc2cc(C(C)(C)C)c(O)c(C(C)(C)C)c2)cc(C(C)(C)C)c1O [Compound 6, bis(3,5-di-tert-butyl-4-hydroxyphenyl) disulfide]

tested on: A-549; assay: MTT assay; assay type: cell-based, human; conditions: Homo sapiens, A549, 72 h
Experimental: as §1, §2

Row | Compound | IC50 [µM]
29 | c1ccc(SSSc2ccccc2)cc1 [Compound 1, diphenyl trisulfide] | 43.6 ± 10.1
30 | Oc1ccc(SSc2ccc(O)cc2)cc1 [Compound 4, 4,4′-dihydroxydiphenyl disulfide] | 29.7 ± 6.1
31 | c1ccc(SSc2ccccc2)cc1 [Compound 5, diphenyl disulfide] | 39.2 ± 8.7

Continued, values first:

Row | IC50 [µM] | Compound
32 | 29.6 ± 7.5 | COc1ccccc1SSc1ccccc1OC [Compound 2, bis(2-methoxyphenyl) disulfide]
33 | 15.5 ± 3.4 | COc1ccc(SSc2ccc(OC)c(OC)c2)cc1OC [Compound 3, bis(3,4-dimethoxyphenyl) disulfide]
34 | > 50 | CC(C)(C)c1cc(SSc2cc(C(C)(C)C)c(O)c(C(C)(C)C)c2)cc(C(C)(C)C)c1O [Compound 6, bis(3,5-di-tert-butyl-4-hydroxyphenyl) disulfide]

tested on: MCF-7; assay: MTT assay; assay type: cell-based, human; conditions: Homo sapiens, MCF7, 72 h
Experimental: as §1, §2

Row | Compound | IC50 [µM]
35 | c1ccc(SSSc2ccccc2)cc1 [Compound 1, diphenyl trisulfide] | 37.6 ± 3.7
36 | Oc1ccc(SSc2ccc(O)cc2)cc1 [Compound 4, 4,4′-dihydroxydiphenyl disulfide] | 45.3 ± 3.1
37 | c1ccc(SSc2ccccc2)cc1 [Compound 5, diphenyl disulfide] | 34.8 ± 12.2

The remaining lines, values ahead:

Row | IC50 [µM] | Compound
38 | 30.5 ± 5.2 | COc1ccccc1SSc1ccccc1OC [Compound 2, bis(2-methoxyphenyl) disulfide]
39 | 37.7 ± 2.7 | COc1ccc(SSc2ccc(OC)c(OC)c2)cc1OC [Compound 3, bis(3,4-dimethoxyphenyl) disulfide]
40 | > 50 | CC(C)(C)c1cc(SSc2cc(C(C)(C)C)c(O)c(C(C)(C)C)c2)cc(C(C)(C)C)c1O [Compound 6, bis(3,5-di-tert-butyl-4-hydroxyphenyl) disulfide]

tested on: HCT-116; assay: MTT assay; assay type: cell-based, human; conditions: Homo sapiens, HCT-116, 72 h
Experimental: as §1, §2

Row | Compound | IC50 [µM]
41 | c1ccc(SSSc2ccccc2)cc1 [Compound 1, diphenyl trisulfide] | 18.8 ± 1.4
42 | Oc1ccc(SSc2ccc(O)cc2)cc1 [Compound 4, 4,4′-dihydroxydiphenyl disulfide] | 22 ± 1.5
43 | c1ccc(SSc2ccccc2)cc1 [Compound 5, diphenyl disulfide] | 22.1 ± 1.7

The remaining lines, values ahead:

Row | IC50 [µM] | Compound
44 | 24.4 ± 2.3 | COc1ccccc1SSc1ccccc1OC [Compound 2, bis(2-methoxyphenyl) disulfide]
45 | 18.9 ± 2.1 | COc1ccc(SSc2ccc(OC)c(OC)c2)cc1OC [Compound 3, bis(3,4-dimethoxyphenyl) disulfide]
46 | > 50 | CC(C)(C)c1cc(SSc2cc(C(C)(C)C)c(O)c(C(C)(C)C)c2)cc(C(C)(C)C)c1O [Compound 6, bis(3,5-di-tert-butyl-4-hydroxyphenyl) disulfide]
